One test has as its target T1, truncated human beta-secretase (residues 1-458, His6-tagged at the C-terminus) (Homo sapiens, UniProt P56817).
T1 construct: truncated human beta-secretase (residues 1-458, His6-tagged at the C-terminus); His6 (C); made in house; host or cells: insect cells D. melanogaster S2 (baculovirus expression system (so in the source))
As to the kind of experiment: BACE fluorescence quench assay.
Conditions: not given
It counts as biochemical.
T1 sequence (P56817 22-458): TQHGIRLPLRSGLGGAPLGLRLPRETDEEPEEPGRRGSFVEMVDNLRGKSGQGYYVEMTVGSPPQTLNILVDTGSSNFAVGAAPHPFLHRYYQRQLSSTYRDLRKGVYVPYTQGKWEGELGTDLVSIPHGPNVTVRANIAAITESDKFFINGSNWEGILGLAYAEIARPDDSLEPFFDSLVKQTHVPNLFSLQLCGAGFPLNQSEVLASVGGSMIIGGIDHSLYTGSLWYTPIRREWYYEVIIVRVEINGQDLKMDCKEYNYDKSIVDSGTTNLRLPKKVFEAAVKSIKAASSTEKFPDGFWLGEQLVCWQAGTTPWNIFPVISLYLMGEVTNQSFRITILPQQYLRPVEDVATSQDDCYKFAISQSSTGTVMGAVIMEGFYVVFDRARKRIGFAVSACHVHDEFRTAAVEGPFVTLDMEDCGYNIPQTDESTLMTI
As usually defined, the IC50 is the concentration at which inhibition is half-maximal. Turning to `CN1C(=O)C2(CC(c3ccccc3)Oc3ccc(-c4ccc(S(=O)(=O)N(C)C)cc4)cc32)N=C1N` (stereo not shown) [Compound 65, 4-(2′-amino-1′-methyl-5′-oxo-2-phenyl-1′,5′-dihydrospiro[chroman-4,4′-imidazole]-6-yl)-N,N-dimethylbenzenesulfonamide], the IC50 is 10 to 50 µM.

For `CN(C)C(=O)c1ccccc1-c1ccc2c(c1)C1(CC(c3ccccc3)O2)N=C(N)N(C)C1=O` (stereo not shown) [Compound 66, 2-(2′-amino-1′-methyl-5′-oxo-2-phenyl-1′,5′-dihydrospiro[chroman-4,4′-imidazole]-6-yl)-N,N-dimethylbenzamide], the IC50 lay within 10 to 50 µM.

Compound `CN(C)C(=O)c1ccc(-c2ccc3c(c2)C2(CC(c4ccccc4)O3)N=C(N)N(C)C2=O)cc1` (stereo not shown) [Compound 68, 4-(2′-amino-1′-methyl-5′-oxo-2-phenyl-1′,5′-dihydrospiro[chroman-4,4′-imidazole]-6-yl)-N,N-dimethylbenzamide] showed an IC50 of 10 to 50 µM.

Turning to `CN1C(=O)C2(CC(c3ccccc3)Oc3ccc(-c4cccn4C(=O)OC(C)(C)C)cc32)N=C1N` (stereo not shown) [Compound 70, tert-butyl 2-(2′-amino-1′-methyl-5′-oxo-2-phenyl-1′,5′-dihydrospiro[chroman-4,4′-imidazole]-6-yl)-1H-pyrrole-1-carboxylate], the IC50 lay in the range of 10 to 50 µM.

`CCN(CC)C(=O)c1ccc(-c2ccc3c(c2)C2(CC(c4ccccc4)O3)N=C(N)N(C)C2=O)cc1` (stereo not shown) [Compound 71, 4-(2′-amino-1′-methyl-5′-oxo-2-phenyl-1′,5′-dihydro-spiro[chroman-4,4′-imidazole]-6-yl)-N,N-diethylbenzamide] returned an IC50 of 10 to 50 µM.

Staying with this test, now noted: in vitro enzyme activity, BACE fluorescence assay, pH 4.5; read-out: IC50.
As for `Cc1ccc2c(c1)C1(CC(c3ccccc3)O2)N=C(N)N(C)C1=O` (stereo not shown) [Compound 64, 2′-amino-1′,6-dimethyl-2-phenylspiro[chroman-4,4′-imidizol]-5′(1′H)-one], the IC50 is 10 to 50 µM.

As to `CCN1C(=O)C2(CC(c3ccccc3)Oc3ccc(Br)cc32)N=C1N` (stereo not shown) [Compound 69, 2′-amino-6-bromo-1′-ethyl-2-phenylspiro[chroman-4,4′-imidazol]-5′(1′H)-one], the half-inhibitory concentration (IC50) lay within 10 to 50 µM.

Regarding `CN1C(=O)C2(CC3(CCCOC3)Oc3ccc(-c4cccc(C#N)c4)cc32)N=C1N` (stereo not shown) [Compound 72], the IC50 was 0.001 to 0.1 µM.

`CN1C(=O)[C@@]2(C[C@]3(CCCOC3)Oc3ccc(-c4cccc(C#N)c4)cc32)N=C1N` [Compound 72a]: the IC50 fell in the range of 0.001 to 0.1 µM.

In the case of `CN1C(=O)[C@@]2(C[C@@]3(CCCOC3)Oc3ccc(-c4cccc(C#N)c4)cc32)N=C1N` [Compound 72b], the IC50 lay in the range of 0.1 to 0.5 µM.

As for `CCC1CCC2(C1)CC1(N=C(N)N(C)C1=O)c1cc(-c3cccc(C#N)c3)ccc1O2` (stereo not shown) [Compound 73], the 50% inhibitory concentration (IC50) fell in the range of 0.1 to 0.5 µM.

`CC1CCC2(C1)CC1(N=C(N)N(C)C1=O)c1cc(-c3cccc(C#N)c3)ccc1O2` (stereo not shown) [Compound 74]: the concentration for half-maximal inhibition (IC50) fell in the range of 0.1 to 0.5 µM.

`CC1CCC2(CC1)CC1(N=C(N)N(C)C1=O)c1cc(-c3cccc(C#N)c3)ccc1O2` (stereo not shown) [Compound 75]: the IC50 was in the range of 0.1 to 0.5 µM.

In the case of `CN1C(=O)C2(CC3(CCCCC3)Oc3ccc(-c4cccc(C#N)c4)cc32)N=C1N` (stereo not shown) [Compound 76], the IC50 lay within 0.1 to 0.5 µM.

Take `CN1C(=O)C2(CC3(CCOCC3)Oc3ccc(-c4cccc(C#N)c4)cc32)N=C1N` (stereo not shown) [Compound 77]: the half-inhibitory concentration (IC50) is 0.1 to 0.5 µM.

Take `CN1C(=O)C2(CC3(CCCCCC3)Oc3ccc(-c4cccc(C#N)c4)cc32)N=C1N` (stereo not shown) [Compound 78]: the IC50 lay in the range of 0.5 to 1 µM.

For `CN1C(=O)C2(CC3(CCCC3)Oc3ccc(-c4cccc(C#N)c4)cc32)N=C1N` (stereo not shown) [Compound 79], the IC50 fell in the range of 0.5 to 1 µM.

Turning to `CN1C(=O)C2(CC3(CCCCC3)Oc3ccc(-c4cccnc4)cc32)N=C1N` (stereo not shown) [Compound 80], the IC50 is 1 to 5 µM.

For `CN1C(=O)C2(CC3(CCCC(C(F)(F)F)C3)Oc3ccc(-c4cccc(C#N)c4)cc32)N=C1N` (stereo not shown) [Compound 81], the IC50 fell in the range of 1 to 5 µM.

On to `CC1CCCC2(C1)CC1(N=C(N)N(C)C1=O)c1cc(-c3cccc(C#N)c3)ccc1O2` (stereo not shown) [Compound 82], for which the IC50 was in the range of 1 to 5 µM.

On to `CC1CC(C)CC2(C1)CC1(N=C(N)N(C)C1=O)c1cc(-c3cccc(C#N)c3)ccc1O2` (stereo not shown) [Compound 83], for which the IC50 lay in the range of 1 to 5 µM.

For `CN1C(=O)C2(CC3(CCCCC3)Oc3ccc(-c4ccncc4)cc32)N=C1N` (stereo not shown) [Compound 84], the concentration for half-maximal inhibition (IC50) lay within 10 to 50 µM.

Regarding `CN1OC2(CC(C3CCCOC3)Oc3ccc(-c4cccc(C#N)c4)cc32)N=C1N` (stereo not shown) [Compound 85, 3-(3′-amino-2′-methyl-2-(tetrahydro-2H-pyran-3-yl)-2′H-spiro[chroman-4,5′-[1,2,4]oxadiazole]-6-yl)benzonitrile], the IC50 was in the range of 0.001 to 0.1 µM.

For `CN1OC2(CC(C3CCCOC3)Oc3ccc(-c4cc(F)cc(C#N)c4)cc32)N=C1N` (stereo not shown) [Compound 86], the IC50 lay within 0.001 to 0.1 µM.

Regarding `CN1OC2(CC(C3CCCOC3)Oc3ccc(-c4cccc(Cl)c4)cc32)N=C1N` (stereo not shown) [Compound 87], the IC50 is 0.1 to 0.5 µM.

Take `CN1OC2(CC(C3CCOCC3)Oc3ccc(-c4cccc(C#N)c4)cc32)N=C1N` (stereo not shown) [Compound 88, 3-(3′-amino-2′-methyl-2-(tetrahydro-2H-pyran-4-yl)-2′H-spiro[chroman-4,5′-[1,2,4]-oxadiazole]-6-yl)benzonitrile]: the IC50 lay within 0.1 to 0.5 µM.

For `CN1OC2(C[C@@H](C3CCCOC3)Oc3ccc(-c4cccnc4F)cc32)N=C1N` (stereo partly shown) [Compound 89a], the IC50 lay in the range of 0.1 to 0.5 µM.

On to `CN1OC2(C[C@H](C3CCCOC3)Oc3ccc(-c4cccnc4F)cc32)N=C1N` (stereo partly shown) [Compound 89b], for which the IC50 fell in the range of 1 to 5 µM.

`CN1OC2(CC(C3CCCOC3)Oc3ccc(-c4cc(F)cc(F)c4)cc32)N=C1N` (stereo not shown) [Compound 90, 6-(3,5-difluorophenyl)-2′-methyl-2-(tetrahydro-2H-pyran-3-yl)-2′H-spiro[chroman-4,5′-[1,2,4]oxadiazol]-3′-amine]: the IC50 was in the range of 0.1 to 0.5 µM.

As to `COc1ccc(F)c(-c2ccc3c(c2)C2(CC(C4CCCOC4)O3)N=C(N)N(C)O2)c1` (stereo not shown) [Compound 91], the IC50 was in the range of 0.1 to 0.5 µM.

Take `COc1cccc(-c2ccc3c(c2)C2(CC(C4CCCOC4)O3)N=C(N)N(C)O2)c1F` (stereo not shown) [Compound 92]: the half-maximal inhibitory concentration (IC50) is 0.1 to 0.5 µM.

`CN1OC2(CC(C3CCCOC3)Oc3ccc(-c4cccc(F)c4)cc32)N=C1N` (stereo not shown) [Compound 93, 6-(3-fluorophenyl)-2′-methyl-2-(tetrahydro-2H-pyran-3-yl)-2′H-spiro[chroman-4,5′-[1,2,4]oxadiazol]-3′-amine]: the IC50 was in the range of 0.5 to 1 µM.

`CN1OC2(CC(C3CCOC3)Oc3ccc(-c4cccc(C#N)c4)cc32)N=C1N` (stereo not shown) [Compound 94]: the IC50 fell in the range of 0.5 to 1 µM.

Consider `CN1OC2(CC(c3cccnc3)Oc3ccc(-c4cccc(C#N)c4)cc32)N=C1N` (stereo not shown) [Compound 95, 3-(3′-amino-2′-methyl-2-(pyridine-3-yl)-2′H-spiro[chroman-4,5′-[1,2,4]-oxadiazole]-6-yl)benzonitrile], for which the IC50 lay in the range of 1 to 5 µM.

Turning to `CN1OC2(CC(c3ccccc3)Oc3ccc(-c4cccc(C#N)c4)cc32)N=C1N` (stereo not shown) [Compound 96, 3-(3′-amino-2′-methyl-2-phenyl-2′H-spiro[chroman-4,5′-[1,2,4]oxadiazole]-6-yl)benzonitrile], the IC50 was in the range of 1 to 5 µM.

As for `CN1OC2(CCOc3ccc(-c4cccc(C#N)c4)cc32)N=C1N` (stereo not shown) [Compound 97, 3-(3′-Amino-2′-methyl-2′H-spiro[chroman-4,5′-[1,2,4]oxadiazole]-6-yl)benzonitrile], the half-inhibitory concentration (IC50) lay within 1 to 5 µM.

`CN1OC2(CC(C3CCCOC3)Oc3ccc(-c4cncnc4)cc32)N=C1N` (stereo not shown) [Compound 98]: the IC50 was 1 to 5 µM.
